Experimental data published in PubChem BioAssay AID2060483 (Molecular Pharmacology Branch, DTP, NCI, 2025).

System: K24384-001-R-PDC complex spheroids, viability
Experiment: Anticancer human tumor K24384-001-R-PDC patient-derived pancreatic adenocarcinoma cell line growth inhibition [GQUAD]
Details: for IC50: curve of first compound; for viability, T/C: stronger effect = lower value
Description: DNA G-quadruplex Stabilizer Agents in Combinations in Complex Spheroids
A high-throughput screen of multi-cell type tumor spheroids was designed to identify active combinations of DNA G-quadruplex stabilizer agents and targeted small molecules. Complex spheroids include a stromal component modeled by human endothelial cells (HUVEC) and fibroblasts modeled by human mesenchymal stem cells (MSCs). The concentration ranges selected for each drug and investigational agent were based upon clinically achievable concentrations if the clinical Cmax of the agent was known.
Compounds. The drugs and investigational agents: pidnarulex (CX-5461; NSC782164), APTO-253 (NSC789042), BRACO-19 (NSC847499), peposertib (NSC802822), ceralasertib (NSC780249), elimusertib (NSC800525), camonsertib (NSC841442), AZD-1390 (NSC803789), olaparib (NSC753686), talazoparib (NSC767125), ART-558 (NSC835418), sotorasib (NSC818433), MRTX-1133 (NSC836407), SN-38 (NSC673596), topotecan (NSC609699), etoposide (NSC141540), doxorubicin (NSC123127), gemcitabine (NSC613327), 5-fluorouracil (NSC19893), paclitaxel (NSC125973), vemurafenib (NSC761431), panobinostat (NSC761190), R-306465 (JNJ-16241199; NSC773264), adavosertib (NSC754352), TP-3654 (NSC805149), carboplatin (NSC241240), KSQ-4279 (NSC840948), and staurosporine (NSC755774) were obtained from the National Cancer Institute (NCI) Developmental Therapeutics Program Chemical Repository (34). The FDA-approved anticancer drug set is available from the NCI Developmental Therapeutics Program. […] The stock solutions were prepared in dimethyl sulfoxide (DMSO, Sigma-Aldrich, St. Louis, MO, cat. D2650) at 800-fold the tested concentration and stored at -70 degrees C prior to their use. All drugs and investigational agents were tested over a range starting from a high concentration at or near the clinical Cmax and decreasing in half-log increments. If the clinical Cmax for an agent had not been determined, the highest concentration tested was 10 microM.
2.3 Cell Culture. All cells were maintained in an incubator at 37 degrees C and 5% CO2 with 95% humidity. The PDC lines were cultured according to standard operating procedures established by the NCI PDMR. All PDCs were thawed and cultured in Matrigel-coated flasks prepared with a working solution of 1X Ham's F-12 nutrient mix, without supplementation (Invitrogen, cat. 11765054), 100 U/mL penicillin-streptomycin (Invitrogen, cat. 15140122), and 2.5% Matrigel (Corning Inc., cat. 354248) for the first three passages. The 857933-349-R-J2-PDC line was cultured in 6C/Colon 1B media, which includes advanced DMEM/F-12 (Thermo Fisher Scientific, cat. 12634028), 10 mM HEPES (Thermo Fisher Scientific, cat. 15630080), 1X GlutaMAX supplement (Thermo Fisher Scientific, cat. 35050061), 0.1 mg/mL primocin (InvivoGen, cat. ant-pm-2), 10% defined fetal bovine serum, heat inactivated (HyClone Laboratories Inc., cat. SH30070.03HI), 50% L-WRN conditioned media (ATCC, cat. CRL-3276), 1.25 mM N-Acetyl-L-cysteine (Sigma-Aldrich, cat. A9165), 10 mM nicotinamide (Sigma-Aldrich, cat. N0636), 1X B-27 supplement (Thermo Fisher Scientific, cat. 17504044), 1X N-2 supplement (Thermo Fisher Scientific, cat. 17502048), 10 microM Y-27632 dihydrochloride (Tocris Bioscience, cat. 1254), and 50 ng/mL human EGF recombinant protein (Thermo Fisher Scientific, cat. PHG0311). The 485176-168-R4-J1-PDC line was cultured in Panc media, which includes all 6C/Colon 1B media components plus 100 ng/mL human FGF-10 (Thermo Fisher Scientific, cat. 100-26), 500 nM SB-431542 (Selleckchem, cat. S1067), and gastrin (Tocris, cat. 3006).
[…]

[1] = second compound 0.0316 µM, first compound 0.0316 µM
[2] = second compound 0.0316 µM, first compound 0.316 µM
[3] = second compound 0.1 µM, first compound 0.0316 µM
[4] = second compound 0.1 µM, first compound 0.316 µM
[5] = second compound 0.316 µM, first compound 0.0316 µM
[6] = second compound 0.316 µM, first compound 0.316 µM
[7] = second compound 1 µM, first compound 0.0316 µM
[8] = second compound 1 µM, first compound 0.316 µM
[9] = second compound 3.16 µM, first compound 0.0316 µM
[10] = second compound 3.16 µM, first compound 0.316 µM
[11] = second compound 10 µM, first compound 0.0316 µM
[12] = second compound 10 µM, first compound 0.316 µM
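Also: spheroids exposed to compounds for seven days.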

Cc1cccc(N(C)C(=O)C2C(O)CCN2c2nc(C)cc(C(F)(F)F)c2C#N)c1 (centres undefined) + CN(C)c1ccc(Nc2c3ccc(NC(=O)CCN4CCCC4)cc3nc3cc(NC(=O)CCN4CCCC4)ccc23)cc1
IC50 (second compound 0.0316 µM): > 10 µM
IC50 (second compound 0.1 µM): > 10 µM
IC50 (second compound 0.316 µM): > 10 µM
IC50 (second compound 1 µM): > 10 µM
IC50 (second compound 3.16 µM): > 10 µM
IC50 (second compound 10 µM): 3.01 µM
viability, T/C [1]: 95.3%
viability, T/C (second compound 0.0316 µM, first compound 0.1 µM): 87.9%
viability, T/C [2]: 91.3%
viability, T/C (second compound 0.0316 µM, first compound 1 µM): 90.6%
viability, T/C (second compound 0.0316 µM, first compound 3.16 µM): 109%
viability, T/C (second compound 0.0316 µM, first compound 10 µM): 111%
viability, T/C [3]: 101%
viability, T/C (second compound 0.1 µM, first compound 0.1 µM): 110%
viability, T/C [4]: 106%
viability, T/C (second compound 0.1 µM, first compound 1 µM): 102%
viability, T/C (second compound 0.1 µM, first compound 3.16 µM): 100%
viability, T/C (second compound 0.1 µM, first compound 10 µM): 97.6%
viability, T/C [5]: 90.2%
viability, T/C (second compound 0.316 µM, first compound 0.1 µM): 81.9%
viability, T/C [6]: 85.4%
viability, T/C (second compound 0.316 µM, first compound 1 µM): 87.7%
viability, T/C (second compound 0.316 µM, first compound 3.16 µM): 102%
viability, T/C (second compound 0.316 µM, first compound 10 µM): 95.3%
viability, T/C [7]: 98%
viability, T/C (second compound 1 µM, first compound 0.1 µM): 83.6%
viability, T/C [8]: 94.7%
viability, T/C (second compound 1 µM, first compound 1 µM): 107%
viability, T/C (second compound 1 µM, first compound 3.16 µM): 91.8%
viability, T/C (second compound 1 µM, first compound 10 µM): 94.3%
viability, T/C [9]: 93%
viability, T/C (second compound 3.16 µM, first compound 0.1 µM): 86.2%
viability, T/C [10]: 80.4%
viability, T/C (second compound 3.16 µM, first compound 1 µM): 104%
viability, T/C (second compound 3.16 µM, first compound 3.16 µM): 117%
viability, T/C (second compound 3.16 µM, first compound 10 µM): 74.4%
viability, T/C [11]: 89.7%
viability, T/C (second compound 10 µM, first compound 0.1 µM): 79.8%
viability, T/C [12]: 76.2%
viability, T/C (second compound 10 µM, first compound 1 µM): 61.8%
viability, T/C (second compound 10 µM, first compound 3.16 µM): 51.1%
viability, T/C (second compound 10 µM, first compound 10 µM): 31.9%

Cn1ncnc1[C@H]1c2n[nH]c(=O)c3cc(F)cc(c23)N[C@@H]1c1ccc(F)cc1 + CN(C)c1ccc(Nc2c3ccc(NC(=O)CCN4CCCC4)cc3nc3cc(NC(=O)CCN4CCCC4)ccc23)cc1
IC50 (second compound 0.0316 µM): > 0.316 µM
IC50 (second compound 0.1 µM): > 0.316 µM
IC50 (second compound 0.316 µM): > 0.316 µM
IC50 (second compound 1 µM): > 0.316 µM
IC50 (second compound 3.16 µM): > 0.316 µM
IC50 (second compound 10 µM): > 0.316 µM
viability, T/C (second compound 0.0316 µM, first compound 0.000999 µM): 101%
viability, T/C (second compound 0.0316 µM, first compound 0.00316 µM): 82.2%
viability, T/C (second compound 0.0316 µM, first compound 0.00999 µM): 108%
viability, T/C [1]: 81.4%
viability, T/C (second compound 0.0316 µM, first compound 0.0999 µM): 80.9%
viability, T/C [2]: 86.1%
viability, T/C (second compound 0.1 µM, first compound 0.000999 µM): 82.9%
viability, T/C (second compound 0.1 µM, first compound 0.00316 µM): 125%
viability, T/C (second compound 0.1 µM, first compound 0.00999 µM): 92.2%
viability, T/C [3]: 81.2%
viability, T/C (second compound 0.1 µM, first compound 0.0999 µM): 107%
viability, T/C [4]: 93%
viability, T/C (second compound 0.316 µM, first compound 0.000999 µM): 85.1%
viability, T/C (second compound 0.316 µM, first compound 0.00316 µM): 89.5%
viability, T/C (second compound 0.316 µM, first compound 0.00999 µM): 105%
viability, T/C [5]: 70%
viability, T/C (second compound 0.316 µM, first compound 0.0999 µM): 79.7%
viability, T/C [6]: 77.3%
viability, T/C (second compound 1 µM, first compound 0.000999 µM): 90.4%
viability, T/C (second compound 1 µM, first compound 0.00316 µM): 91.2%
viability, T/C (second compound 1 µM, first compound 0.00999 µM): 88%
viability, T/C [7]: 87.1%
viability, T/C (second compound 1 µM, first compound 0.0999 µM): 100%
viability, T/C [8]: 69.4%
viability, T/C (second compound 3.16 µM, first compound 0.000999 µM): 101%
viability, T/C (second compound 3.16 µM, first compound 0.00316 µM): 85.7%
viability, T/C (second compound 3.16 µM, first compound 0.00999 µM): 77.8%
viability, T/C [9]: 92.3%
viability, T/C (second compound 3.16 µM, first compound 0.0999 µM): 91.7%
viability, T/C [10]: 65.5%
viability, T/C (second compound 10 µM, first compound 0.000999 µM): 88.2%
viability, T/C (second compound 10 µM, first compound 0.00316 µM): 75.1%
viability, T/C (second compound 10 µM, first compound 0.00999 µM): 82.9%
viability, T/C [11]: 118%
viability, T/C (second compound 10 µM, first compound 0.0999 µM): 110%
viability, T/C [12]: 54.8%
